Molecular target: IDO1 (Homo sapiens, UniProt P14902)
Assay: IDO1 Cellular Assay in HeLa Cells Stimulated with IFNγ
Assay type: cell-based
Conditions: read-out: HeLa Cell Potency, IC50

IDO1, sequence (P14902 whole entry): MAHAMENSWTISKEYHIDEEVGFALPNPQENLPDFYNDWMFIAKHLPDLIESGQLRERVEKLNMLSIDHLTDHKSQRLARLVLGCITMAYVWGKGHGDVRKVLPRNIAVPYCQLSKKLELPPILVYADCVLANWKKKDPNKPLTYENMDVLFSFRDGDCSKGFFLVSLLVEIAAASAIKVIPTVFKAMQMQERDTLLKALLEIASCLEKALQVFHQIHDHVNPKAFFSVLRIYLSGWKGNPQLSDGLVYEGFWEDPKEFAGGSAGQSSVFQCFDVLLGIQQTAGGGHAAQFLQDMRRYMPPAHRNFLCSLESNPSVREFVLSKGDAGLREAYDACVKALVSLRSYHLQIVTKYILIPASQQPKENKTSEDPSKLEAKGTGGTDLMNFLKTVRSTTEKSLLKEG

Row | SMILES | IC50 [nM]
1 | CC(=O)NC1CCN(C(=O)c2nn(CC(=O)N3CCN(c4cccc(Cl)c4C)CC3)c3c2CC(F)CC3)CC1 (centres unmarked) [Example 367, N-(1-(1-(2-(4-(3-chloro-2-methylphenyl)piperazin-1-yl)-2-oxoethyl)-5-fluoro-4,5,6,7-tetrahydro-1H-indazole-3-carbonyl)piperidin-4-yl)acetamide] | 2.89
2 | Cc1c(Cl)cccc1N1CCN(C(=O)Cn2nc(C(=O)N3CC[C@H](O)[C@H](F)C3)c3c2CCC(F)C3)CC1 (stereo partly drawn) [Example 369, 1-(4-(3-chloro-2-methylphenyl)piperazin-1-yl)-2-(5-fluoro-3-((3R,4S)-3-fluoro-4-hydroxypiperidine-1-carbonyl)-4,5,6,7-tetrahydro-1H-indazol-1-yl)ethan-1-one] | 6.62
3 | Cc1c(Cl)cccc1N1CCN(C(=O)Cn2nc(C(=O)N3CC[C@@H](O)[C@@H](F)C3)c3c2CCC(F)C3)CC1 (stereo partly drawn) [Example 370, 1-(4-(3-chloro-2-methylphenyl)piperazin-1-yl)-2-(5-fluoro-3-((3S,4R)-3-fluoro-4-hydroxypiperidine-1-carbonyl)-4,5,6,7-tetrahydro-1H-indazol-1-yl)ethan-1-one] | 9.52
4 | Cc1c(Cl)cccc1N1CCN(C(=O)Cn2nc(C(=O)N3CCN(C(=O)CO)CC3)c3c2CCC(F)C3)CC1 (centres unmarked) [Example 371, 1-(4-(3-chloro-2-methylphenyl)piperazin-1-yl)-2-(5-fluoro-3-(4-(2-hydroxyacetyl)piperazine-1-carbonyl)-4,5,6,7-tetrahydro-1H-indazol-1-yl)ethan-1-one] | 15.7
5 | Cc1c(Cl)cccc1N1CCN(C(=O)Cn2nc(C(=O)N3CCC(O)CC3)c3c2CCC(F)C3)CC1 (centres unmarked) [Example 372, 1-(4-(3-chloro-2-methylphenyl)piperazin-1-yl)-2-(5-fluoro-3-(4-hydroxypiperidine-1-carbonyl)-4,5,6,7-tetrahydro-1H-indazol-1-yl)ethan-1-one] | 2.32
6 | Cc1c(Cl)cccc1N1CCN(C(=O)Cn2nc(C(=O)N3CC[C@H](O)[C@H](F)C3)c3c2CCC(F)C3)CC1 (stereo partly drawn) [Example 374, 1-(4-(3-chloro-2-methylphenyl)piperazin-1-yl)-2-(5-fluoro-3-((3R,4S)-3-fluoro-4-hydroxypiperidine-1-carbonyl)-4,5,6,7-tetrahydro-1H-indazol-1-yl)ethan-1-one] | 5.17
7 | Cc1c(Cl)cccc1N1CCN(C(=O)Cn2nc(C(=O)N3CC[C@@H](O)[C@@H](F)C3)c3c2CCC(F)C3)CC1 (stereo partly drawn) [Example 375, 1-(4-(3-chloro-2-methylphenyl)piperazin-1-yl)-2-(5-fluoro-3-((3S,4R)-3-fluoro-4-hydroxypiperidine-1-carbonyl)-4,5,6,7-tetrahydro-1H-indazol-1-yl)ethan-1-one] | 9.03
8 | Cc1c(Cl)cccc1N1CCN(C(=O)Cn2nc(C(=O)N3CCN(C(=O)CO)CC3)c3c2CCC(F)C3)CC1 (centres unmarked) [Example 376, 1-(4-(3-chloro-2-methylphenyl)piperazin-1-yl)-2-(5-fluoro-3-(4-(2-hydroxyacetyl)piperazine-1-carbonyl)-4,5,6,7-tetrahydro-1H-indazol-1-yl)ethan-1-one] | 14
9 | CC(=O)NC1CCN(C(=O)c2nn(CC(=O)N3CCN(c4cccc(Cl)c4C)CC3)c3c2CC(F)CC3)CC1 (centres unmarked) [Example 377, N-(1-(1-(2-(4-(3-chloro-2-methylphenyl)piperazin-1-yl)-2-oxoethyl)-5-fluoro-4,5,6,7-tetrahydro-1H-indazol-3-carbonyl)piperidin-4-yl)acetamide] | 3.15
10 | Cc1c(Cl)cccc1N1CCN(C(=O)Cn2nc(C(=O)N3CC[C@@H](O)[C@@H](F)C3)c3c2CCC(F)(F)C3)CC1 [Example 378, 1-(4-(3-chloro-2-methylphenyl)piperazin-1-yl)-2-(5,5-difluoro-3-((3 S,4R)-3-fluoro-4-hydroxypiperidine-1-carbonyl)-4,5,6,7-tetrahydro-1H-indazol-1-yl)ethan-1-one] | 9.25
11 | Cc1c(Cl)cccc1N1CCN(C(=O)Cn2nc(C(=O)N3CCN(C)C(C)C3)c3c2CCC(F)(F)C3)CC1 (centres unmarked) [Example 382] | 11.6
12 | Cc1c(Cl)cccc1N1CCN(C(=O)Cn2nc(C(=O)N3CCC(O)(CF)CC3)c3c2CCC(F)(F)C3)CC1 [Example 383, 1-(4-(3-chloro-2-methylphenyl)piperazin-1-yl)-2-(5,5-difluoro-3-(4-(fluoromethyl)-4-hydroxypiperidine-1-carbonyl)-4,5,6,7-tetrahydro-1H-indazol-1-yl)ethan-1-one] | 4.49
13 | Cc1cccc(N2CCN(C(=O)Cn3nc(C(=O)N4CCC(O)CC4)c4c3C[C@H]3C[C@@H]43)C(C(F)F)C2)c1C (stereo partly drawn) [Example 385, 1-(2-(difluoromethyl)-4-(2,3-dimethylphenyl)piperazin-1-yl)-2-((3bR,4aR)-3-(4-hydroxypiperidine-1-carbonyl)-3b,4,4a,5-tetrahydro-1H-cyclopropa[3,4]cyclopenta[1,2-c]pyrazol-1-yl)ethanone] | 34.9
14 | Cc1cccc(N2CCN(C(=O)Cn3nc(C(=O)N4CCN(C(=O)CO)CC4)c4c3C[C@H]3C[C@@H]43)C(C(F)F)C2)c1C (some centres unmarked) [Example 388] | 92.6
15 | Cc1cccc(N2CCN(C(=O)Cn3nc(C(=O)N4CCN(C(=O)CO)CC4)c4c3C[C@H]3C[C@@H]43)C(C(F)F)C2)c1C (some centres unmarked) [Example 389] | 47.6

More lines, now with the values ahead:

Row | IC50 [nM] | SMILES
16 | 226 | Cc1cccc(N2CCN(C(=O)Cn3nc(C(=O)N4CCN(C(=O)CO)CC4)c4c3C[C@H]3C[C@@H]43)C(C(F)F)C2)c1C (some centres unmarked) [Example 390]
17 | 22.4 | Cc1cccc(N2CCN(C(=O)Cn3nc(C(=O)N4CCN(C(=O)[C@H](C)O)CC4)c4c3CCC4)CC2)c1C [Example 397, (S)-1-(4-(1-(2-(4-(2,3-dimethylphenyl)piperazin-1-yl)-2-oxoethyl)-1,4,5,6-tetrahydrocyclopenta[c]pyrazole-3-carbonyl)piperazin-1-yl)-2-hydroxypropan-1-one]
18 | 258 | Cc1cccc(N2CCN(C(=O)Cn3nc(C(=O)N4CCN(C(=O)CN)CC4)c4c3CCC4)CC2)c1C [Example 398, 2-amino-1-(4-(1-(2-(4-(2,3-dimethylphenyl)piperazin-1-yl)-2-oxoethyl)-1,4,5,6-tetrahydrocyclopenta[c]pyrazole-3-carbonyl)piperazin-1-yl)ethanone]
19 | 22.4 | COCC(=O)N1CCN(C(=O)c2nn(CC(=O)N3CCN(c4cccc(C)c4C)CC3)c3c2CCC3)CC1 [Example 399, 1-(4-(2,3-dimethylphenyl)piperazin-1-yl)-2-(3-(4-(2-methoxyacetyl)piperazine-1-carbonyl)-5,6-dihydrocyclopenta[c]pyrazol-1(4H)-yl)ethanone]
20 | 25.6 | Cc1cccc(N2CCN(C(=O)Cn3nc(C(=O)N4CCN(C(=O)CO)[C@H](C)C4)c4c3CCC4)CC2)c1C [Example 400, (R)-1-(4-(2,3-dimethylphenyl)piperazin-1-yl)-2-(3-(4-(2-hydroxyacetyl)-3-methylpiperazine-1-carbonyl)-5,6-dihydrocyclopenta[c]pyrazol-1(4H)-yl)ethanone]
21 | 12.9 | Cc1cccc(N2CCN(C(=O)Cn3nc(C(=O)N4CCN(C(=O)CO)C[C@@H]4C)c4c3CCC4)CC2)c1C [Example 401, (S)-1-(4-(2,3-dimethylphenyl)piperazin-1-yl)-2-(3-(4-(2-hydroxyacetyl)-2-methylpiperazine-1-carbonyl)-5,6-dihydrocyclopenta[c]pyrazol-1(4H)-yl)ethanone]
22 | 3.58 | Cc1cccc(N2CCN(C(=O)Cn3nc(C(=O)N4CCN(C(=O)CO)C[C@H]4C)c4c3CCC4)CC2)c1C [Example 402, (R)-1-(4-(2,3-dimethylphenyl)piperazin-1-yl)-2-(3-(4-(2-hydroxyacetyl)-2-methylpiperazine-1-carbonyl)-5,6-dihydrocyclopenta[c]pyrazol-1(4H)-yl)ethanone]
23 | 18.3 | Cc1cccc(N2CCN(C(=O)Cn3nc(C(=O)N4CCN(C(=O)[C@@H](C)O)CC4)c4c3CCC4)CC2)c1C [Example 403, (R)-1-(4-(1-(2-(4-(2,3-dimethylphenyl)piperazin-1-yl)-2-oxoethyl)-1,4,5,6-tetrahydrocyclopenta[c]pyrazole-3-carbonyl)piperazin-1-yl)-2-hydroxypropan-1-one]
24 | 1.06 | Cc1c(Cl)cccc1N1CCN(C(=O)Cn2nc(C(=O)N3CC[C@H](O)[C@@H](F)C3)c3c2CCCC3)CC1 [Example 404, 1-(4-(3-chloro-2-methylphenyl)piperazin-1-yl)-2-(3-((3S,4S)-3-fluoro-4-hydroxypiperidine-1-carbonyl)-4,5,6,7-tetrahydro-1H-indazol-1-yl)ethanone]
25 | 1.09 | Cc1c(Cl)cccc1N1CCN(C(=O)Cn2nc(C(=O)N3CCC(O)(CF)CC3)c3c2CCCC3)CC1 [Example 407, 1-(4-(3-chloro-2-methylphenyl)piperazin-1-yl)-2-(3-(4-(fluoromethyl)-4-hydroxypiperidine-1-carbonyl)-4,5,6,7-tetrahydro-1H-indazol-1-yl)ethanone]
26 | 4.93 | Cc1c(Cl)ccnc1N1CCN(C(=O)Cn2nc(C(=O)N3CCC(O)CC3)c3c2CCCC3)C2(CC2)C1 [Example 408, 1-(7-(4-chloro-3-methylpyridin-2-yl)-4,7-diazaspiro[2.5]octan-4-yl)-2-(3-(4-hydroxypiperidine-1-carbonyl)-4,5,6,7-tetrahydro-1H-indazol-1-yl)ethanone]
27 | 2.63 | Cc1cccc(N2CCN(C(=O)Cn3nc(C(=O)N4CCC(O)CC4)c4c3CCCCC4)CC2)c1C [Example 409, 1-(4-(2,3-dimethylphenyl)piperazin-1-yl)-2-(3-(4-hydroxypiperidine-1-carbonyl)-5,6,7,8-tetrahydrocyclohepta[c]pyrazol-1(4H)-yl)ethan-1-one]
28 | 4.97 | Cc1cccc(N2CCN(C(=O)Cn3nc(C(=O)N4C[C@@H](C)O[C@@H](C)C4)c4c3CCCCC4)CC2)c1C [Example 410, 2-(3-((2R,6S)-2,6-dimethylmorpholine-4-carbonyl)-5,6,7,8-tetrahydrocyclohepta[c]pyrazol-1(4H)-yl)-1-(4-(2,3-dimethylphenyl)piperazin-1-yl)ethanone]
29 | 8.74 | Cc1cccc(N2CCN(C(=O)Cn3nc(C(=O)N4CCC(O)C(F)C4)c4c3CCCCC4)CC2)c1C (centres unmarked) [Example 411, 1-(4-(2,3-dimethylphenyl)piperazin-1-yl)-2-(3-(3-fluoro-4-hydroxypiperidine-1-carbonyl)-5,6,7,8-tetrahydrocyclohepta[c]pyrazol-1(4H)-yl)ethanone]

From US12264134B2 (Merck Sharp & Dohme LLC, priority 2018, dated 2025)
